According to article PMC13371181, “A paracrine-to-autocrine shunt of GREM1 fuels colorectal cancer metastasis via ACVR1C” (Molecular Cancer, 2026):
“Also recorded” adds a separate entry of the source. Peptide text beside a SMILES is read from it.

Experiments:
[1] = system: GREM1; conditions: monoclonal antibodies; cited from earlier work
From the text: The advent of cancer genomics and precision medicine has enabled targeted therapies for advanced CRC, with agents against VEGF, EGFR, BRAF V600E, and HER2 showing efficacy in selected patient subsets. However, issues like limited bioavailability, resistance, and narrow indications restrict their broader use. Unlike mutation-specific targets, GREM1 is a widely expressed cytokine with sustained, context-dependent activity, making it a promising and potentially broadly applicable therapeutic target in CRC. Therapeutic targeting of GREM1 to date has focused largely on full neutralization str ...

[2] = molecular target: T1, GREM1 (Homo sapiens, UniProt O60565); assay: MST binding of ACVR1C peptide to GREM1-His; conditions: GREM1 for ACVR1C peptide versus ACVR1C-ECD
T1 construct: His; purchased R&D 5190-GR
T1 sequence (O60565 25-184): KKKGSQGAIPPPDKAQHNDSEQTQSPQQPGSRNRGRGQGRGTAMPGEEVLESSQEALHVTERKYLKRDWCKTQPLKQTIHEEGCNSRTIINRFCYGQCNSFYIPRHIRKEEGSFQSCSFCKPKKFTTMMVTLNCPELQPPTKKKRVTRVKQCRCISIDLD
Protocol: MST was carried out on a Monolith NT.115 instrument (NanoTemper Technologies GmbH, MO-L011). To evaluate ACVR1C-ECD or ACVR1C peptide or ACVR1C-ECD-double mutant (E85A/T101A) binding to GREM1-His or ACTIVIN B-His, an increasing concentration of purified ACVR1C-ECD-Fc protein (0–27.5 µM) or ACVR1C peptide (0–2.3 µM) or ACVR1C-ECD-double mutant (0–27.5 µM) was incubated with 50 nM red-fluorescently labeled (NanoTemper Technologies GmbH, MO-L011) GREM1-His protein (R&D, 5190-GR) or ACTIVIN B-His protein (SinoBiological, 10814-H08H). Experiments were carried out in a PBS buffer pH 7.4 using premium capillaries (NanoTemper Technologies GmbH, MO-K025).

[3] = system: HCT116-luc cells; assay: Spleen-to-liver metastasis model, HCT116-luc (pLV-GREM1) in NOG mice; type: in vivo, human cells in NOG mice; conditions: HCT116-luc (pLV-GREM1) injected in the spleen, ACVR1C peptide 10 mg/kg i.v. (tail vein) every other day from 48 h after cell injection, IVIS, n = 5 mice per group
Protocol: For spleen-to-liver metastasis model, 5 × 10^5 MC38-luc cells or MC38-luc (pLV-Grem1) cells were resuspended in 50 µL of PBS and injected into the spleen of GD mice or control mice (Grem1-CreER^T2/Rosa-LSL-DTA mice) (n = 5 mice in each group). 5 × 10^5 HCT116-luc cells carrying a pLV or pLV-GREM1 were resuspended in 50 µL of PBS and intrasplenically injected into NOG mice (n = 5 mice in each group). ACVR1C peptide was administered via tail vein injection at a dose of 10 mg/kg once every other day.

[4] = system: GREM1–ACVR1C; assay: Pull-down assay, blocking of GREM1–ACVR1C-ECD binding; parameters: species or system human; conditions: GREM1-His and ACVR1C-ECD-Fc, Coomassie Brilliant Blue
Protocol: Protein pull-down assay was performed using purified recombinant human His-tagged GREM1 protein and recombinant human ACVR1C-ECD and Fc chimera protein. Protein was enriched by Pierce Protein A magnetic beads (MCE, HY-K0202) or Ni Sepharose 6 Fast Flow (GE, 17531801) following the manufacturer’s instructions. Pulled-down proteins were detected by Coomassie Brilliant Blue staining.

In the case of “Ginisortamab: fully humanized anti-GREM1 monoclonal antibody”, the “efficacy in preclinical models” value [1] is listed as “have shown efficacy in preclinical models”.

In the case of `CC[C@H](C)[C@H](NC(=O)[C@H](CC(N)=O)NC(=O)[C@H](CC(N)=O)NC(=O)[C@H](CS)NC(=O)[C@H](Cc1ccccc1)NC(=O)[C@H](CC(=O)O)NC(=O)[C@@H](NC(=O)[C@H](Cc1ccccc1)NC(=O)[C@H](CS)NC(=O)[C@H](CS)NC(=O)[C@H](CCC(=O)O)NC(=O)[C@@H](N)[C@@H](C)O)[C@@H](C)O)C(=O)N[C@H](C(=O)N[C@@H](CC(C)C)C(=O)N[C@@H](Cc1c[nH]cn1)C(=O)N[C@@H](CC(C)C)C(=O)N1CCC[C@H]1C(=O)N[C@H](C(=O)N[C@@H](C)C(=O)O)[C@@H](C)O)[C@@H](C)O` [ACVR1C peptide] (H-TECCFTDFCNNITLHLPTA-OH; N-terminus and C-terminus assumed), the “affinity compared with ACVR1C-ECD” value [2] is reported as “comparable to that for the ACVR1C-ECD”, the liver metastasis [3] is reported as “effectively suppressed the increase in liver metastasis induced by tumor-specific GREM1 overexpression” and the liver metastasis ([3]; listed as GREM1-blocking peptide) is reported as “significantly impairs CRC metastasis in vivo”. The “blocking of GREM1–ACVR1C binding” value [4] was “significantly blocked the GREM1–ACVR1C binding; also recorded: blocked the interaction between GREM1 and ACVR1C-ECD”.
